Results: paper PMC2628638, “Catalytic inhibition of topoisomerase II by a novel rationally designed ATP-competitive purine analogue” (BMC Chemical Biology, 2009)

Key:
HL-60 cells = assay: Chromosome segregation assay (chromosome spreads); format: cell-based; details: 10 μM with 1 mM caffeine for 2 hours after 6 hours release
Protocol: HL-60 cells were treated overnight for 16 hours with 2 μg/ml aphidicolin (Sigma-Aldrich corporation, St. Louis, MO) and released by washing twice PBS and resuspending into fresh medium. After 6 hours release the cells were treated with 1 mM caffeine (Lancaster Synthesis, Heysham, Lancashire, UK) and with catalytic topoisomerase II inhibitor or vehicle for 2 hours. Cells were washed once with PBS and incubated with 56 mM KCl hypotonic solution for 30 minutes. Cells were pelleted and carefully resuspended in Carnoy's fixative. Cells were pelleted as above, supernatant was removed and cells were resuspended again in 2 ml fixative. Chromosome spreads were prepared by dropping 50 μl cell suspension onto microscopy slides. The slides were allowed to dry and then stained for 10 seconds in Hoechst 33342 dye (Molecular Probes, Eugene, Oregon, prepared 1:1000 in PBS from 10 mg/ml stock). After drying, mounting media (Vectashield®, Vector Laboratories, Burlingame, CA) and a cover slip were added. Samples were observed using an immersion oil lens (100 ×, Nikon, Plan Apo VC) by fluorescence microscopy (Nikon Eclipse, E600) in the DAPI channel. Images were acquired using analySIS® software (Soft Imaging System GmbH, Münster, Germany). Representative images were converted to grayscale, inverted and contrast adjusted with Adobe Photoshop. Mitotic cells were categorized as described.

FGFR3-K560E = assay: Radiometric filter binding kinase assay; format: biochemical
FGFR3-K560E, sequence (P22607 397-806 K560E): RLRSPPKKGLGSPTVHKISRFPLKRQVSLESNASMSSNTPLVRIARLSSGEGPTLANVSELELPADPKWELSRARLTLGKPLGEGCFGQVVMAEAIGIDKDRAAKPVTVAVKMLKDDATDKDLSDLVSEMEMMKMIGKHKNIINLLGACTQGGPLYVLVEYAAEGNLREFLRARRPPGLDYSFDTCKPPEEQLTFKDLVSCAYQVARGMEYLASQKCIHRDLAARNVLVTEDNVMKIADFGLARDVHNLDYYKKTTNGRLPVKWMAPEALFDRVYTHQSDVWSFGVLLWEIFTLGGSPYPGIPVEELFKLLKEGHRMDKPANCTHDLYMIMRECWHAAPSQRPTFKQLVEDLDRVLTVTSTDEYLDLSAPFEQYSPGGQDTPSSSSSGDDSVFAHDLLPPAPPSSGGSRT
Source text: (§1) Based on homology structural models of the target, a purine scaffold was designed interactively using the Macromodel modeling software. The designed purine scaffold was subsequently used as a substructure query to search the Novartis compound collection. Around 50 molecules were retrieved in this manner and screened in an ATPase assay using purified full length tagged human topoisomerase II alpha. […] Subsequently, we carried out kinetic analysis with QAP 1 in order to corroborate the mode of action. […] The data were analyzed by non-linear regression analysis using the equations corresponding to competitive, uncompetitive, and mixed inhibition (see Methods) and a statistical analysis (F-test; p ≤ 0.05) was carried out to identify the best model. […] A linearized representation (Eady-Hofstee) of one of these experiments is depicted in Figure 1D. To confirm the mode of action of QAP 1, inhibition studies were also carried out in the presence of different concentration of the inhibitor at different ATP concentrations and the IC50 values were determined. […] Next, QAP 1 was tested against a panel of kinases in a radiometric assay. With the exception of subtle inhibition of the Ret and c-Src tyrosine kinases no effect of the compound was observed on other kinases in the panel, even at the highest concentration tested (Table 1). Thus, QAP 1 is a relatively potent inhibitor of topoisomerase II ATPase function with fairly good selectivity over various serine/threonine/tyrosine protein kinases. To test if QAP 1 inhibited topoisomerase II DNA strand passage activity, nuclear extracts of HL-60 leukemic cells were incubated with catenated kDNA in the presence of increasing concentrations of QAP 1.

Fak = Fak (Homo sapiens, UniProt Q05397); assay: Radiometric filter binding kinase assay; format: biochemical
Fak, sequence (Q05397 whole entry, species assumed): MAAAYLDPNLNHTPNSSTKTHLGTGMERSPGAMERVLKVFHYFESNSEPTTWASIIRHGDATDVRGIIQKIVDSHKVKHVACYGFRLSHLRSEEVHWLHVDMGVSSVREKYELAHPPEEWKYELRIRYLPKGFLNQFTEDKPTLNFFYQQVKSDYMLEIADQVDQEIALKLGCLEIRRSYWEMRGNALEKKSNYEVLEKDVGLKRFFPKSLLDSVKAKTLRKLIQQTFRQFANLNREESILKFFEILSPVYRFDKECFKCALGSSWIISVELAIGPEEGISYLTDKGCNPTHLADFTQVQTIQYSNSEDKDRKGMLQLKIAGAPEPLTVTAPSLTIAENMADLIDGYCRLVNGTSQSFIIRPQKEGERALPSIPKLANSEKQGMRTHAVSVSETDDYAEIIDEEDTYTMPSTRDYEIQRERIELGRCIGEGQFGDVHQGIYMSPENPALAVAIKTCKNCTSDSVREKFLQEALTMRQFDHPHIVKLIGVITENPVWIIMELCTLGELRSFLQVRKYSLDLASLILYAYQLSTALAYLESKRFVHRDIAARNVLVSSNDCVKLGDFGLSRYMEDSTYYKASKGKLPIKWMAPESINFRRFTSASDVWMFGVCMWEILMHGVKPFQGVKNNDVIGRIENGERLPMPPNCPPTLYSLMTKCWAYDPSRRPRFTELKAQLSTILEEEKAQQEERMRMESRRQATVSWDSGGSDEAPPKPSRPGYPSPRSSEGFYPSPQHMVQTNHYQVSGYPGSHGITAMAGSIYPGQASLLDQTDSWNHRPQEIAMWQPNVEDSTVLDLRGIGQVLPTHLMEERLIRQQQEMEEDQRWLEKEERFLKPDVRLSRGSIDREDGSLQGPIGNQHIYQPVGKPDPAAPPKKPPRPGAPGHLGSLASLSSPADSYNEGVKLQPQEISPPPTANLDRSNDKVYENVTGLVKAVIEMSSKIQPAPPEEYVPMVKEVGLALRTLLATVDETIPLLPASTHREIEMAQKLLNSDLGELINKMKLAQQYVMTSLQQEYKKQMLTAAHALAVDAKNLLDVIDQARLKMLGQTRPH
Source text: as §1

Flt-3 = Flt-3 (Homo sapiens, UniProt P36888); assay: Radiometric filter binding kinase assay; format: biochemical
Source text: as §1

HER-1 = HER-1 (Homo sapiens, UniProt P00533); assay: Radiometric filter binding kinase assay; format: biochemical
HER-1, sequence (P00533 25-1210, species assumed): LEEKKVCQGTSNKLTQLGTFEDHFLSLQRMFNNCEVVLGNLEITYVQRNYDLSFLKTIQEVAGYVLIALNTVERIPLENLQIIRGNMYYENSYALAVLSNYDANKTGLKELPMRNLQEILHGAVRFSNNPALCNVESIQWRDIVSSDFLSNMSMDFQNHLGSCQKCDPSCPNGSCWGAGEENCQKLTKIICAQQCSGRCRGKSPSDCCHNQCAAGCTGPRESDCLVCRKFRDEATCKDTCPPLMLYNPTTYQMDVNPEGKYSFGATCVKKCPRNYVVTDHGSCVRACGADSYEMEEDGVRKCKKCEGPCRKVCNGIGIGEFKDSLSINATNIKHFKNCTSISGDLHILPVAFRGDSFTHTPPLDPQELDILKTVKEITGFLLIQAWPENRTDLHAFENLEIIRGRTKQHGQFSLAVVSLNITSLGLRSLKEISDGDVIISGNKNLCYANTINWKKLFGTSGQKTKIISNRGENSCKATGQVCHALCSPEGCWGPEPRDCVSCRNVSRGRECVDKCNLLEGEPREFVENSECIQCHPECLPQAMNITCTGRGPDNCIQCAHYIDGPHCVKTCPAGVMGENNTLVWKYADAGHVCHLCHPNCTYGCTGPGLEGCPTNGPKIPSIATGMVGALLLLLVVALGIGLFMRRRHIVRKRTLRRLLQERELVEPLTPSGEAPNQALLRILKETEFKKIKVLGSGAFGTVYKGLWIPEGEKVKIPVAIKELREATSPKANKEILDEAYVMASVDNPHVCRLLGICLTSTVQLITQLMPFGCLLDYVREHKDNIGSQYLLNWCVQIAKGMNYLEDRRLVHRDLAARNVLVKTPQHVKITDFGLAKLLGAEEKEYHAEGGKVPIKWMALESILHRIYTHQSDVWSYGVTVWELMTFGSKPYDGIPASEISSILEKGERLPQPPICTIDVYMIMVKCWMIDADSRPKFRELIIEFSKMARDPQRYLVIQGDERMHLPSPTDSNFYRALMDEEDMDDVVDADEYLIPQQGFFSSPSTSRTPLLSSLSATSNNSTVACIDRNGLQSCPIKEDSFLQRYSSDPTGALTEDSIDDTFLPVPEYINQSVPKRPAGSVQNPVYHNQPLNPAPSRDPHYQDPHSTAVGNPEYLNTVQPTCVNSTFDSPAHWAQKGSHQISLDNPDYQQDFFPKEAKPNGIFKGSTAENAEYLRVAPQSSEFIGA
Source text: as §1

Ret = Ret (Homo sapiens, UniProt P07949); assay: Radiometric filter binding kinase assay; format: biochemical; details: mean of two independent experiments ± SD
Source text: as §1

c-Abl-T315I = c-Abl-T315I (Homo sapiens, UniProt P00519, T315I); assay: Radiometric filter binding kinase assay; format: biochemical
Source text: as §1

topoisomerase II alpha = topoisomerase II alpha (Homo sapiens, UniProt P11388); assay: DNA-dependent ATPase assay (malachite green); format: biochemical; parameters: screened in an ATPase assay using purified full length tagged human topoisomerase II alpha; made in house; host or cells: Sf21 insect cells, baculovirus (pFastBac1)
topoisomerase II alpha, sequence (P11388 whole entry): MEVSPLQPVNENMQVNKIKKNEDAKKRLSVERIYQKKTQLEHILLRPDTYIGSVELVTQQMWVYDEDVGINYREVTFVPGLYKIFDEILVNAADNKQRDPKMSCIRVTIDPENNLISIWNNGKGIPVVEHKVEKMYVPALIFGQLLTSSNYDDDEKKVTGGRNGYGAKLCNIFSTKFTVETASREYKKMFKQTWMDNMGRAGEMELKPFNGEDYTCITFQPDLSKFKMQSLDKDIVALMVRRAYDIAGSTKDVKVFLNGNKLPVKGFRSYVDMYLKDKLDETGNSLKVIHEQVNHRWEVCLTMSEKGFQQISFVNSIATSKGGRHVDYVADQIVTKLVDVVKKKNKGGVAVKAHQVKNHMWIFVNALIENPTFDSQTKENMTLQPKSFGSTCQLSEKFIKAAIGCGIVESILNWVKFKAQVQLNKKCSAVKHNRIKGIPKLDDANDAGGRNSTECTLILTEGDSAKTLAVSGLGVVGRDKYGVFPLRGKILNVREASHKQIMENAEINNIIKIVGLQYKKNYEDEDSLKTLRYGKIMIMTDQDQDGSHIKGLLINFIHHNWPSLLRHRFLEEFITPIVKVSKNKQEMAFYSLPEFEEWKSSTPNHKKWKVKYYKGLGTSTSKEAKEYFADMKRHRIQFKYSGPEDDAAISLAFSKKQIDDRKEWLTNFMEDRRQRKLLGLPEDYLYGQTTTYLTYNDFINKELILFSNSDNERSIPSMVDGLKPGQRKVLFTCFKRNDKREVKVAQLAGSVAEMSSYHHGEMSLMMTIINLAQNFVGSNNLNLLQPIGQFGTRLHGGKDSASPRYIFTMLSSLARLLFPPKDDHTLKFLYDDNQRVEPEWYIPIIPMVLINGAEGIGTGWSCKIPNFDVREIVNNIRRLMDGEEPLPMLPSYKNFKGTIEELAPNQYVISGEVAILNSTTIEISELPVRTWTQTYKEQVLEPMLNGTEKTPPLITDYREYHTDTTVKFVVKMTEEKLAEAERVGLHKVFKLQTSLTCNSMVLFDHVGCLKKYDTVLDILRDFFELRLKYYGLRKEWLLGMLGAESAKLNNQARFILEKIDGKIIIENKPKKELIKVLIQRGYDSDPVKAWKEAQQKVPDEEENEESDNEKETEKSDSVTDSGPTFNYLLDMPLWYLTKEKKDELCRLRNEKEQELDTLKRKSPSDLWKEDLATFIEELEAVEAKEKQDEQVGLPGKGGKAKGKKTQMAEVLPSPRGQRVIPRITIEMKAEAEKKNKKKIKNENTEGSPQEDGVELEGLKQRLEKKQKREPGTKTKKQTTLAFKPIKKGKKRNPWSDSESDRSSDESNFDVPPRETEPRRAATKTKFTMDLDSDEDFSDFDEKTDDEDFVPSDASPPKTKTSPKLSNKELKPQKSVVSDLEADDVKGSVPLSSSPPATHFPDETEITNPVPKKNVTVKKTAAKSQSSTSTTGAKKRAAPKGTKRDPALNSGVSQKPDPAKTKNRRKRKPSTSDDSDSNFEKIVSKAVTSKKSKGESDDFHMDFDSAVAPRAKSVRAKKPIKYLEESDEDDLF
Protocol: DNA-dependent ATP hydrolysis of human topoisomerase II α was monitored by measuring the production of inorganic phosphate using acidic molybdate and malachite green. Specific ATPase activity of every batch was tested in a time-course to determine optimal incubation times and enzyme concentrations within the linear range of the assay. Reactions thus contained 10 – 40 nM topoisomerase II (dimer concentration) in reaction buffer (10 mM Tris HCl pH 7.5, 175 mM KCl, 0.1 mM EDTA, 5 mM MgCl2, 2 mM DTT, 2.5% glycerol and 1.7 nM supercoiled pUC18). The specific activity of the human topoisomerase II α enzyme measured in the ATPase assay was 0.24 μmol PO4·min^-1·mg^-1. […] Compounds at the indicated concentrations were added as serial dilutions prepared in DMSO and preincubated for 10 minutes at 37°C on an orbital shaker. Reactions were started by the addition of 400 μM ATP (Sigma, catalog number A2383) and allowed to proceed for 30 minutes. Reactions were terminated by the addition of 200 μl malachite green reagent and the OD was read immediately at 630 nm on a SpectraMax Plus microtiter plate reader using SoftMax Pro software (Molecular Devices). For kinetic analysis, reactions were carried out in duplicate as described above either in the presence of vehicle (DMSO) or QAP 1. Following a preincubation for 5 minutes, ATP was added at the indicated concentrations to start the reactions, which were allowed to proceed for 17 minutes before stopping and reading as above. From these values the OD values obtained at each respective ATP concentration without enzyme were subtracted for background correction. […] A compromise was found by carrying out the competition experiments with a single concentration of the inhibitor that gave a good inhibition of enzyme activity while keeping a measurable signal. The equations used to fit these experiments are: […]
Each competition experiment was fitted (Grafit version 5.04 – Erithacus Software) with these 3 equations and the models that gave unrealistic inhibition constants (above 10 mM) and/or large standard errors (similar to the value of the fitted parameter) were rejected. Then, the F-test was carried out to identify the best fitting model. An alternative method was used to determine the mode of action of the inhibitor. Dose-response experiments were carried out at different ATP concentrations and the corresponding IC50s determined. According to the Cheng-Prusoff equation for linear competitive inhibition: […]
The IC50 of a competitive inhibitive inhibitor should increase in a linear fashion with the concentration of ATP. The measured IC50s were then plotted in function of the ATP concentrations and linear regression analyses were carried out. […] Mean Km and Vmax values were calculated from two independent experiments.

IC50 (FGFR3-K560E): > 10 µM
IC50 (Fak): > 10 µM
IC50 (Flt-3): > 10 µM
IC50 (HER-1): > 10 µM
IC50 (Ret): 1.35 ± 0.05 µM
IC50 (c-Abl-T315I): > 10 µM
IC50 (topoisomerase II alpha; full length tagged human topoisomerase II alpha, 400 μM ATP): 0.128 ± 0.021 µM
mode of inhibition (kinetic analysis, F-test) (topoisomerase II alpha; non-linear regression, competitive vs uncompetitive vs mixed models): ATP-competitive inhibitor
SMILES: CCc1nc2nc(Nc3ccc4nc(OCCN5CCOCC5)ccc4c3)nc(NC(C)(C)C)c2[nH]1 [QAP 1]
chromosome segregation at mitosis (HL-60 cells): mitosis was also severely perturbed during anaphase
